Converted amounts (≈) assume the structure as drawn. The source made the active and inactive calls. No cut-off for these calls is given here.
How the values were obtained:
[1] = system: Staphylococcus epidermidis; experiment: Antibacterial activity against Staphylococcus epidermidis ATCC 12228 after 18 hrs; type: functional; settings: ATCC 12228, 18 h
Shigella flexneri = experiment: Antibacterial activity against Shigella flexneri NCTC 8516 after 18 hrs; type: functional; settings: NCTC 8516, 18 h
Staphylococcus aureus [2] = experiment: Antibacterial activity against methicillin-resistant Staphylococcus aureus isolate 1 after 18 hrs; type: functional
Serratia marcescens = experiment: Antibacterial activity against Serratia marcescens PTCC 1111 after 18 hrs; type: functional
[3] = system: Staphylococcus epidermidis; experiment: Antibacterial activity against Staphylococcus epidermidis ATCC 14940 after 18 hrs; type: functional; settings: ATCC 14940, 18 h
Salmonella typhi = experiment: Antibacterial activity against Salmonella typhi ATCC 19430 after 18 hrs; type: functional, Salmonella enterica subsp. enterica serovar Typhi; settings: Salmonella enterica, ATCC 19430, 18 h
Bacillus subtilis = experiment: Antibacterial activity against Bacillus subtilis ATCC 6051 after 18 hrs; type: functional; settings: ATCC 6051, 18 h
Staphylococcus aureus [4] = experiment: Antibacterial activity against methicillin-resistant Staphylococcus aureus isolate 2 after 18 hrs; type: functional
Klebsiella pneumoniae = experiment: Antibacterial activity against Klebsiella pneumoniae ATCC 10031 after 18 hrs; type: functional; settings: ATCC 10031, 18 h
Staphylococcus aureus [5] = experiment: Antibacterial activity against Staphylococcus aureus ATCC 25923 after 18 hrs; type: functional; settings: ATCC 25923, 18 h
Staphylococcus aureus [6] = experiment: Antibacterial activity against Staphylococcus aureus ATCC 6538p after 18 hrs; type: functional
Enterococcus faecalis = experiment: Antibacterial activity against Enterococcus faecalis NCTC 6013 after 18 hrs; type: functional; settings: NCTC 6013, 18 h
Escherichia coli [7] = experiment: Antibacterial activity against Escherichia coli NCTC 12900 after 18 hrs; type: functional; settings: NCTC 12900, 18 h
Escherichia coli [8] = experiment: Antibacterial activity against Escherichia coli ATCC 25922 after 18 hrs; type: functional; settings: ATCC 25922, 18 h
Pseudomonas aeruginosa = experiment: Antibacterial activity against Pseudomonas aeruginosa ATCC 27853 after 18 hrs; type: functional; settings: ATCC 27853, 18 h
MCF7 = experiment: Cytotoxic activity against human MCF7 cells after 48 hrs by MTT reduction assay; type: functional, cell-based; settings: for IC50: MCF7, 48 h

SMILES | MIC [1] [µg/mL] | MIC (Shigella flexneri) [µg/mL] | MIC (Staphylococcus aureus [2]) [µg/mL] | MIC (Serratia marcescens) [µg/mL] | MIC [3] [µg/mL] | MIC (Salmonella typhi) [µg/mL] | MIC (Bacillus subtilis) [µg/mL] | MIC (Staphylococcus aureus [4]) [µg/mL] | MIC (Klebsiella pneumoniae) [µg/mL] | MIC (Staphylococcus aureus [5]) [µg/mL] | MIC (Staphylococcus aureus [6]) [µg/mL] | MIC (Enterococcus faecalis) [µg/mL] | MIC (Escherichia coli [7]) [µg/mL] | MIC (Escherichia coli [8]) [µg/mL] | MIC (Pseudomonas aeruginosa) [µg/mL] | IC50 (MCF7) [µM] | Activity (MCF7)
C[C@H]1COc2c(N3CCN(C)CC3)c(F)cc3c(=O)c(C(=O)O)cn1c23.C[C@H]1COc2c(N3CCN(C)CC3)c(F)cc3c(=O)c(C(=O)O)cn1c23.O [LEVOFLOXACIN] | 0.25 | 0.03 | 0.25 | 0.5 | 0.5 | 0.03 | 0.5 | 0.25 | 0.25 | 0.5 | 0.25 | 1 | – | – | – | – | –
Cc1ccc(/C(CN2CCN(c3c(F)cc4c(=O)c(C(=O)O)cn5c4c3OC[C@@H]5C)CC2)=N/O)cc1 | 0.5 (≈ 1.01 µM) | 1 (≈ 2.02 µM) | 0.5 (≈ 1.01 µM) | > 4 | 0.5 (≈ 1.01 µM) | 1 (≈ 2.02 µM) | 0.5 (≈ 1.01 µM) | 0.5 (≈ 1.01 µM) | > 4 | 1 (≈ 2.02 µM) | 0.5 (≈ 1.01 µM) | 0.25 (≈ 0.506 µM) | 1 (≈ 2.02 µM) | 1 (≈ 2.02 µM) | > 4 | – | –
C[C@H]1COc2c(N3CCN(CC(=O)c4ccccc4)CC3)c(F)cc3c(=O)c(C(=O)O)cn1c23 | 0.5 (≈ 1.07 µM) | 0.25 (≈ 0.537 µM) | 0.5 (≈ 1.07 µM) | 4 (≈ 8.59 µM) | 0.5 (≈ 1.07 µM) | 0.12 (≈ 0.258 µM) | 0.5 (≈ 1.07 µM) | 1 (≈ 2.15 µM) | 0.5 (≈ 1.07 µM) | 0.5 (≈ 1.07 µM) | 0.5 (≈ 1.07 µM) | 4 (≈ 8.59 µM) | 0.25 (≈ 0.537 µM) | 0.12 (≈ 0.258 µM) | > 4 | – | –
C[C@H]1COc2c(N3CCN(C/C(=N\O)c4ccccc4)CC3)c(F)cc3c(=O)c(C(=O)O)cn1c23 | 0.5 (≈ 1.04 µM) | 0.5 (≈ 1.04 µM) | 0.5 (≈ 1.04 µM) | > 4 | 0.5 (≈ 1.04 µM) | 0.5 (≈ 1.04 µM) | 0.25 (≈ 0.52 µM) | 1 (≈ 2.08 µM) | 4 (≈ 8.32 µM) | 0.5 (≈ 1.04 µM) | 0.5 (≈ 1.04 µM) | 4 (≈ 8.32 µM) | 4 (≈ 8.32 µM) | 4 (≈ 8.32 µM) | > 4 | – | –
C[C@H]1COc2c(N3CCN(C/C(=N\O)c4ccc(Br)cc4)CC3)c(F)cc3c(=O)c(C(=O)O)cn1c23 | 0.25 (≈ 0.447 µM) | 0.5 (≈ 0.894 µM) | 0.5 (≈ 0.894 µM) | > 4 | 0.12 (≈ 0.215 µM) | 0.5 (≈ 0.894 µM) | 0.12 (≈ 0.215 µM) | 0.5 (≈ 0.894 µM) | > 4 | 0.5 (≈ 0.894 µM) | 0.5 (≈ 0.894 µM) | 0.06 (≈ 0.107 µM) | 1 (≈ 1.79 µM) | 4 (≈ 7.15 µM) | > 4 | 5.2 | –
C[C@H]1COc2c(N3CCN(CC(=O)c4ccc(Cl)cc4Cl)CC3)c(F)cc3c(=O)c(C(=O)O)cn1c23 | 1 (≈ 1.87 µM) | 1 (≈ 1.87 µM) | 0.5 (≈ 0.936 µM) | > 4 | 0.5 (≈ 0.936 µM) | 2 (≈ 3.74 µM) | 1 (≈ 1.87 µM) | 1 (≈ 1.87 µM) | > 4 | 0.5 (≈ 0.936 µM) | 1 (≈ 1.87 µM) | 0.5 (≈ 0.936 µM) | 2 (≈ 3.74 µM) | 1 (≈ 1.87 µM) | > 4 | – | –
COc1cc([C@@H]2c3cc4c(cc3[C@@H](O[C@@H]3O[C@@H]5CO[C@@H](C)O[C@H]5[C@H](O)[C@H]3O)[C@H]3COC(=O)[C@H]23)OCO4)cc(OC)c1O [ETOPOSIDE] | – | – | – | – | – | – | – | – | – | – | – | – | – | – | – | 3.2 | –
COc1ccc(/C(CN2CCN(c3c(F)cc4c(=O)c(C(=O)O)cn5c4c3OC[C@@H]5C)CC2)=N/O)cc1 | 0.5 (≈ 0.979 µM) | 0.5 (≈ 0.979 µM) | 1 (≈ 1.96 µM) | > 4 | 0.5 (≈ 0.979 µM) | 0.5 (≈ 0.979 µM) | 0.12 (≈ 0.235 µM) | 0.5 (≈ 0.979 µM) | > 4 | 1 (≈ 1.96 µM) | 0.5 (≈ 0.979 µM) | 0.06 (≈ 0.118 µM) | 0.5 (≈ 0.979 µM) | 0.5 (≈ 0.979 µM) | > 4 | – | –
C[C@H]1COc2c(N3CCN(C/C(=N\O)c4ccc(Cl)cc4)CC3)c(F)cc3c(=O)c(C(=O)O)cn1c23 | 0.25 (≈ 0.485 µM) | 0.5 (≈ 0.971 µM) | 0.5 (≈ 0.971 µM) | > 4 | 0.12 (≈ 0.233 µM) | 0.5 (≈ 0.971 µM) | 0.25 (≈ 0.485 µM) | 0.25 (≈ 0.485 µM) | > 4 | 0.5 (≈ 0.971 µM) | 0.25 (≈ 0.485 µM) | 0.06 (≈ 0.117 µM) | 1 (≈ 1.94 µM) | 2 (≈ 3.88 µM) | > 4 | 5.2 | –
COc1ccc(C(=O)CN2CCN(c3c(F)cc4c(=O)c(C(=O)O)cn5c4c3OC[C@@H]5C)CC2)cc1 | 0.25 (≈ 0.505 µM) | 0.5 (≈ 1.01 µM) | 0.5 (≈ 1.01 µM) | 4 (≈ 8.07 µM) | 0.25 (≈ 0.505 µM) | 0.5 (≈ 1.01 µM) | 0.25 (≈ 0.505 µM) | 1 (≈ 2.02 µM) | 4 (≈ 8.07 µM) | 0.5 (≈ 1.01 µM) | 0.5 (≈ 1.01 µM) | 0.06 (≈ 0.121 µM) | 0.5 (≈ 1.01 µM) | 0.5 (≈ 1.01 µM) | > 4 | – | –
C[C@H]1COc2c(N3CCNCC3)c(F)cc3c(=O)c(C(=O)O)cn1c23 [N-DESMETHYL LEVOFLOXACIN] | 1 (≈ 2.88 µM) | 0.06 (≈ 0.173 µM) | 2 (≈ 5.76 µM) | 1 (≈ 2.88 µM) | 1 (≈ 2.88 µM) | 0.06 (≈ 0.173 µM) | 1 (≈ 2.88 µM) | 2 (≈ 5.76 µM) | 0.25 (≈ 0.72 µM) | 4 (≈ 11.5 µM) | 2 (≈ 5.76 µM) | 0.06 (≈ 0.173 µM) | 0.12 (≈ 0.345 µM) | 0.12 (≈ 0.345 µM) | > 4 | – | –
C[C@H]1COc2c(N3CCN(C/C(=N\O)c4ccc(Cl)cc4Cl)CC3)c(F)cc3c(=O)c(C(=O)O)cn1c23 | 0.5 (≈ 0.91 µM) | 4 (≈ 7.28 µM) | 0.5 (≈ 0.91 µM) | > 4 | 0.5 (≈ 0.91 µM) | 4 (≈ 7.28 µM) | 1 (≈ 1.82 µM) | 0.5 (≈ 0.91 µM) | > 4 | 0.5 (≈ 0.91 µM) | 0.5 (≈ 0.91 µM) | 4 (≈ 7.28 µM) | 4 (≈ 7.28 µM) | 4 (≈ 7.28 µM) | > 4 | – | –
C[C@H]1COc2c(N3CCN(CC(=O)c4ccc(F)cc4)CC3)c(F)cc3c(=O)c(C(=O)O)cn1c23 | 0.5 (≈ 1.03 µM) | 1 (≈ 2.07 µM) | 0.5 (≈ 1.03 µM) | > 4 | 0.5 (≈ 1.03 µM) | 1 (≈ 2.07 µM) | 0.5 (≈ 1.03 µM) | 1 (≈ 2.07 µM) | > 4 | 1 (≈ 2.07 µM) | 1 (≈ 2.07 µM) | 0.25 (≈ 0.517 µM) | 2 (≈ 4.14 µM) | 1 (≈ 2.07 µM) | > 4 | – | –
C[C@H]1COc2c(N3CCN(CC(=O)c4ccc(Br)cc4)CC3)c(F)cc3c(=O)c(C(=O)O)cn1c23 | 0.25 (≈ 0.459 µM) | 0.5 (≈ 0.918 µM) | 1 (≈ 1.84 µM) | 4 (≈ 7.35 µM) | 0.25 (≈ 0.459 µM) | 0.5 (≈ 0.918 µM) | 0.25 (≈ 0.459 µM) | 0.5 (≈ 0.918 µM) | > 4 | 0.5 (≈ 0.918 µM) | 1 (≈ 1.84 µM) | 0.12 (≈ 0.22 µM) | 0.5 (≈ 0.918 µM) | 0.5 (≈ 0.918 µM) | > 4 | 5.2 | –
C[C@H]1COc2c(N3CCN(C/C(=N\OCc4ccccc4)c4ccccc4)CC3)c(F)cc3c(=O)c(C(=O)O)cn1c23 | > 4 | > 4 | > 4 | > 4 | > 4 | > 4 | > 4 | > 4 | > 4 | > 4 | > 4 | > 4 | > 4 | > 4 | > 4 | – | inactive
C[C@H]1COc2c(N3CCN(CC(=O)c4ccc(Cl)cc4)CC3)c(F)cc3c(=O)c(C(=O)O)cn1c23 | 0.25 (≈ 0.5 µM) | 0.25 (≈ 0.5 µM) | 0.25 (≈ 0.5 µM) | 4 (≈ 8 µM) | 0.12 (≈ 0.24 µM) | 0.25 (≈ 0.5 µM) | 0.12 (≈ 0.24 µM) | 0.25 (≈ 0.5 µM) | > 4 | 0.5 (≈ 1 µM) | 0.5 (≈ 1 µM) | 0.06 (≈ 0.12 µM) | 1 (≈ 2 µM) | 0.5 (≈ 1 µM) | > 4 | 5.2 | –
C[C@H]1COc2c(N3CCN(C/C(=N\O)c4ccc(F)cc4)CC3)c(F)cc3c(=O)c(C(=O)O)cn1c23 | 0.5 (≈ 1 µM) | 1 (≈ 2.01 µM) | 1 (≈ 2.01 µM) | > 4 | 0.5 (≈ 1 µM) | 1 (≈ 2.01 µM) | 0.25 (≈ 0.502 µM) | 1 (≈ 2.01 µM) | > 4 | 1 (≈ 2.01 µM) | 1 (≈ 2.01 µM) | 0.25 (≈ 0.502 µM) | 2 (≈ 4.01 µM) | 4 (≈ 8.02 µM) | > 4 | – | –
Cc1ccc(C(=O)CN2CCN(c3c(F)cc4c(=O)c(C(=O)O)cn5c4c3OC[C@@H]5C)CC2)cc1 | 0.5 (≈ 1.04 µM) | 0.5 (≈ 1.04 µM) | 1 (≈ 2.09 µM) | > 4 | 0.5 (≈ 1.04 µM) | 1 (≈ 2.09 µM) | 0.5 (≈ 1.04 µM) | 1 (≈ 2.09 µM) | > 4 | 0.5 (≈ 1.04 µM) | 1 (≈ 2.09 µM) | 0.25 (≈ 0.521 µM) | 0.5 (≈ 1.04 µM) | 1 (≈ 2.09 µM) | > 4 | – | –
